Details: 298.15 K

SMILES	solubility (mole fraction) (in acetone)	solubility (mole fraction) (in acetonitrile)	solubility (mole fraction) (in chlorobenzene)	solubility (mole fraction) (in chloroform)	solubility (mole fraction) (in ethanol)	solubility (mole fraction) (in n-hexane)	solubility (mole fraction) (in tetrachloromethane)	solubility (mole fraction) (in cyclohexane)	solubility (mole fraction) (in ethyl acetate)	solubility (mole fraction) (in ethylene glycol)	solubility (mole fraction) (in isopropanol)	solubility (mole fraction) (in methanol)	solubility (mole fraction) (in n-heptane)	solubility (mole fraction) (in n-pentane)	solubility (mole fraction) (in n-propanol)	solubility (mole fraction) (in toluene)
c1ccc2c(c1)c1ccccc1n2-c1ccc(-c2ccc(-n3c4ccccc4c4ccccc43)cc2)cc1	0.000153	7.54e-06	0.00491	0.0083	2.25e-06	9.41e-06	0.000997									
c1ccc(N(c2ccc(-c3ccc(N(c4ccccc4)c4cccc5ccccc45)cc3)cc2)c2cccc3ccccc23)cc1	2.11e-05	1.56e-06	0.00131	0.00268	5.59e-07	3.15e-06	0.000234									
COc1ccc2c(c1)c(CC(=O)O)c(C)n2C(=O)c1ccc(Cl)cc1	0.0234	0.00239	0.0023	0.00876	0.00441	4.84e-07	4.2e-05	1.87e-05	0.0111	0.000509	0.00465	0.00228	6.13e-07	3.31e-07	0.00433	0.000908
c1ccc2cc3ccccc3cc2c1	0.00318	0.000765	0.00946	0.00995	0.000428	0.0012	0.00481									
O=C(O)c1cccnc1Nc1cccc(C(F)(F)F)c1	0.0288	0.00131	0.000297	0.00166	0.0138	5.35e-06	7.06e-05									
c1ccc2cc3cc4ccccc4cc3cc2c1	3.27e-05	7.97e-06	0.00014	0.000132	6.91e-06	1.5e-05	4.61e-05									
c1cc2cccc3c4cccc5cccc(c(c1)c23)c54	0.000301	4.68e-05	0.00177	0.00134	2.42e-05	5.53e-05	0.000444									

— BigSolDB 2.1
